Consider 18 compounds from paper PMC11106707, “Design of potent tyrosinase inhibiting N-arylated-4-yl-benzamides bearing 2-aminothiazole-triazole bi-heterocycles: mechanistic insight through enzyme inhibition, kinetics and computational studies” (RSC Advances, 2024).

In one data set the target is tyrosinase. The following applies: tyrosinase inhibitor reported previously, Fig. 1; cited from earlier work.
A further data set concerns RBCs (erythrocytes). In words: Hemolytic activity. Format: cell-based. The following applies: bovine, erythrocyte (RBC) suspension, pH 7.4, 20 μL compound solution (10 mg mL^−1) in 180 μL RBCs suspension, room temperature, read-out: Hemolysis (%) (mean ± SEM). Here is the method:
Bovine blood sample was collected in EDTA that was diluted with saline (0.9% NaCl), and centrifuge at 1000 × g for 10 min. The erythrocytes separated diluted in phosphate buffer saline of pH 7.4 and a suspension was made. Add 20 μL of synthetic compounds solution (10 mg mL^−1) in 180 μL of RBCs suspension and incubate for 30 min at room temperature. PBS was used as negative control and Triton 100-X was taken as positive control.[43,44] The percentage of hemolysis was taken as by using formula: [drawing 24]

The target in the next data set is T1, mushroom tyrosinase (Agaricus bisporus, UniProt C7FF04).
T1 construct: purchased Sigma Chemical, USA
T1 sequence (C7FF04 1-392): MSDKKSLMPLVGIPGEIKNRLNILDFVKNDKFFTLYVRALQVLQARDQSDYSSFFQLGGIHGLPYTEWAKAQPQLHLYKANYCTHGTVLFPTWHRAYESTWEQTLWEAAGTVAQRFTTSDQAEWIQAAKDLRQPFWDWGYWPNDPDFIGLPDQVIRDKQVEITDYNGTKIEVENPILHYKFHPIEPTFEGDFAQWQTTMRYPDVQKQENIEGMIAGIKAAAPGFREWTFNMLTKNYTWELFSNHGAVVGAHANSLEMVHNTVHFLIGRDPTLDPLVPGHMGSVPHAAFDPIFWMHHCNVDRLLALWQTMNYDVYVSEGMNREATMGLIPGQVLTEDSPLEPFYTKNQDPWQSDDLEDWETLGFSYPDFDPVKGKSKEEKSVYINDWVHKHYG
In words: Kinetic analysis of the inhibition of tyrosinase (Lineweaver–Burk / secondary plots). Type of data set: biochemical. On the procedure: To understand the inhibitory mechanism of synthetic compounds on the tyrosinase inhibition, kinetic study was performed. […] The kinetic results of the enzyme by the Lineweaver–Burk plot of 1/V versus 1/[S] in the presence of different inhibitor concentrations furnished a series of straight lines (Fig. 13A).
Fig. 13 Lineweaver–Burk plots for inhibition of tyrosinase in the presence of compound 9c. (A) Concentrations of 9c were 0.00, 0.004, 0.008, 0.016 and 0.032 μM, respectively. Substrate L-DOPA concentrations were 0.125, 0.25, 0.5, 1 and 2 mM, respectively. (B) The insets represent the plot of the slope versus inhibitor 9c concentrations to determine inhibition constant. The lines were drawn using linear least squares fit.
A series of experiments were performed to determine the inhibition kinetics of 9c by following the already reported methods.[41,42] The inhibitor concentrations for 9c were 0.00, 0.004, 0.008, 0.016 and 0.032 μM. Substrate L-DOPA concentrations were between 0.125 and 2 mM in all kinetic studies. Pre-incubation and measurement time was the same as discussed in the mushroom tyrosinase inhibition assay protocol. Maximal initial velocity was determined from the initial linear portion of absorbance up to five minutes after addition of enzyme at a 30 s interval. […]

On to `COc1cc(Cl)ccc1-n1c(SCC(=O)Nc2ccc(Br)cc2)nnc1-c1ccccc1`, for which the IC50 at tyrosinase is 0.0048 ± 0.0016 µM. `Nn1c(SCc2cc(=O)c(O)co2)nnc1-c1ccccc1Cl`: on tyrosinase, the IC50 was 5.35 ± 0.15 µM.

Take `Cc1ccccc1NC(=O)CSc1nnc(Cc2csc(N)n2)n1-c1ccccc1`: the IC50 on tyrosinase was 0.0156 ± 0.0021 µM.

On to `Clc1ccc(-c2csc(N/N=C/c3ccc[nH]3)n2)cc1`, for which, on tyrosinase, the IC50 was 7.48 ± 0.19 µM. As to `Cc1ccc(NC(=O)c2ccc(CSc3nnc(Cc4csc(N)n4)n3-c3ccccc3)cc2)c(C)c1` [9a, 4-[({5-[(2-Amino-1,3-thiazol-4-yl)methyl]-4-phenyl-4H-1,2,4-triazol-3-yl}sulfanyl)methyl]-N-(2,4-dimethylphenyl)benzamide], in the data set with RBCs (erythrocytes), the hemolysis at 30 min, 1 mg/mL came out at 6.47 ± 0.02%.

Turning to `Cc1ccc(C)c(NC(=O)c2ccc(CSc3nnc(Cc4csc(N)n4)n3-c3ccccc3)cc2)c1` [9b, 4-[({5-[(2-Amino-1,3-thiazol-4-yl)methyl]-4-phenyl-4H-1,2,4-triazol-3-yl}sulfanyl)methyl]-N-(2,5-dimethylphenyl)benzamide], the hemolysis at 30 min, 1 mg/mL in the data set with RBCs (erythrocytes) was 11.76 ± 0.03%. In the case of `Cc1cccc(C)c1NC(=O)c1ccc(CSc2nnc(Cc3csc(N)n3)n2-c2ccccc2)cc1` [9c, 4-[({5-[(2-Amino-1,3-thiazol-4-yl)methyl]-4-phenyl-4H-1,2,4-triazol-3-yl}sulfanyl)methyl]-N-(2,6-dimethylphenyl)benzamide], the Inhibition type entry at mushroom tyrosinase (Lineweaver–Burk plots, Vmax decreased, Km remained the same) is given as “non-competitively”. On mushroom tyrosinase (calculated from Dixon plots, substrate L-DOPA 0.125–2 mM, read-out: Inhibition constant Ki), the Ki is 16 nM. For the same compound, in the data set with RBCs (erythrocytes), the hemolysis at 30 min, 1 mg/mL was determined as 9.41 ± 0.02%.

As to `Cc1ccc(NC(=O)c2ccc(CSc3nnc(Cc4csc(N)n4)n3-c3ccccc3)cc2)cc1C` [9d, 4-[({5-[(2-Amino-1,3-thiazol-4-yl)methyl]-4-phenyl-4H-1,2,4-triazol-3-yl}sulfanyl)methyl]-N-(3,4-dimethylphenyl)benzamide], in the data set on RBCs (erythrocytes), the hemolysis at 30 min, 1 mg/mL came to 8.82 ± 0.04%. Still for that read-out and setting: the result for `Cc1cc(C)cc(NC(=O)c2ccc(CSc3nnc(Cc4csc(N)n4)n3-c3ccccc3)cc2)c1` [9e, 4-[({5-[(2-Amino-1,3-thiazol-4-yl)methyl]-4-phenyl-4H-1,2,4-triazol-3-yl}sulfanyl)methyl]-N-(3,5-dimethylphenyl)benzamide] reads 6.47 ± 0.02%. Still for that read-out and setting: as for `Cc1ccccc1NC(=O)c1ccc(CSc2nnc(Cc3csc(N)n3)n2-c2ccccc2)cc1` [9f, 4-[({5-[(2-Amino-1,3-thiazol-4-yl)methyl]-4-phenyl-4H-1,2,4-triazol-3-yl}sulfanyl)methyl]-N-(2-methylphenyl)benzamide], the figure is 12.94 ± 0.03%; as for `Cc1cccc(NC(=O)c2ccc(CSc3nnc(Cc4csc(N)n4)n3-c3ccccc3)cc2)c1` [9g, 4-[({5-[(2-Amino-1,3-thiazol-4-yl)methyl]-4-phenyl-4H-1,2,4-triazol-3-yl}sulfanyl)methyl]-N-(3-methylphenyl)benzamide], 6.52 ± 0.02%. `Cc1ccc(NC(=O)c2ccc(CSc3nnc(Cc4csc(N)n4)n3-c3ccccc3)cc2)cc1` [9h, 4-[({5-[(2-Amino-1,3-thiazol-4-yl)methyl]-4-phenyl-4H-1,2,4-triazol-3-yl}sulfanyl)methyl]-N-(4-dimethylphenyl)benzamide]: in the data set on RBCs (erythrocytes), the hemolysis at 30 min, 1 mg/mL was determined as 2.64 ± 0.04%. For the compound `CCc1ccccc1NC(=O)c1ccc(CSc2nnc(Cc3csc(N)n3)n2-c2ccccc2)cc1` [9i, 4-[({5-[(2-Amino-1,3-thiazol-4-yl)methyl]-4-phenyl-4H-1,2,4-triazol-3-yl}sulfanyl)methyl]-N-(2-ethylphenyl)benzamide], the hemolysis at 30 min, 1 mg/mL in the data set on RBCs (erythrocytes) came out at 9.41 ± 0.05%.

In the case of `CCc1ccc(NC(=O)c2ccc(CSc3nnc(Cc4csc(N)n4)n3-c3ccccc3)cc2)cc1` [9j, 4-[({5-[(2-Amino-1,3-thiazol-4-yl)methyl]-4-phenyl-4H-1,2,4-triazol-3-yl}sulfanyl)methyl]-N-(4-ethylphenyl)benzamide], in the data set with RBCs (erythrocytes), the hemolysis at 30 min, 1 mg/mL was 8.52 ± 0.05%. Turning to `CCOc1cccc(NC(=O)c2ccc(CSc3nnc(Cc4csc(N)n4)n3-c3ccccc3)cc2)c1` [9k, 4-[({5-[(2-Amino-1,3-thiazol-4-yl)methyl]-4-phenyl-4H-1,2,4-triazol-3-yl}sulfanyl)methyl]-N-(3-ethoxyphenyl)benzamide], the hemolysis at 30 min, 1 mg/mL in the data set with RBCs (erythrocytes) is 10.35 ± 0.03%. As for `O=C(/C=C/c1ccc(O)cc1)NC(=O)c1ccccc1` [N-acryloyl benzamide Derivatives], the IC50 on tyrosinase is 19.2 ± 1.14 µM.

Consider `COc1cccc(C(=O)NN2C(=O)c3ccccc3NC2c2ccc(Br)cc2)c1` (centres unmarked) [Quinazolinone Benzamide Derivatives], for which the IC50 on tyrosinase is 1.61 ± 0.324 µM. Turning to `CC(C)(C)CC(C)(C)c1ccc(OCCO)cc1` [Triton X, reference compound], the hemolysis at 30 min, 1 mg/mL with RBCs (erythrocytes) is 94.11 ± 0.01%.
